Test results as given in US11214594B2, “Antimicrobial peptide having synergistic antibacterial effect with antibiotics on multidrug resistant bacteria, and use thereof” (priority 2016, dated 2022).
Converted amounts (≈) assume the structure as drawn. Where two headings read alike, the source gives them in different places. Where a SMILES comes first, the peptide text is derived from it.

Experiments:
MDRPA 2002 = type: cell-based, Pseudomonas aeruginosa
How it was run: (§1)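 MIC read-out = lowest peptide level with no bacterial proliferation. Strains diluted in MH medium to 2×10^6 CFU; peptide twofold serial dilutions in MH added 1:1 in microtiter wells.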

MDRPA 2003 = type: cell-based, Pseudomonas aeruginosa
How it was run: as §1

A. baumannii [1] = assay: microbe, parasite or virus in culture; type: cell-based, Acinetobacter baumannii
How it was run: as §1

MDRAB 12035 [2] = assay: microbe, parasite or virus in culture; type: cell-based, Acinetobacter baumannii
How it was run: as §1

B. subtilis = assay: microbe, parasite or virus in culture; type: cell-based, Bacillus subtilis
How it was run: as §1

A. baumannii [3] = assay: MIC of antibiotic during combined treatment with antimicrobial peptide; type: cell-based, Acinetobacter baumannii; conditions: for Synergistic effect of antibacterial activity with existing antibiotics compared with PapMA-1: A. baumannii and MDRAB 12035; for Antibiotic MIC, Erythromycin / Antibiotic MIC, Linezolid / Antibiotic MIC, Vancomycin: A. baumannii
How it was run: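 Checkerboard-type MIC of peptide–antibiotic mixtures in MH medium: the antibiotic was serially diluted in MH medium and added to wells, then the reversed arrangement was also tested.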

MDRAB 12035 [4] = assay: as above; type: cell-based, Acinetobacter baumannii
How it was run: (§2)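 Strains in MH medium at 2×10^6 CFU/ml were mixed with peptide diluted stepwise (2:1) from its MIC, then antibiotic dilutions in MH medium were added to give the antibiotic MIC. The reversed set-up, peptide titrated against fixed antibiotic, gave the peptide MIC.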

E. coli = type: cell-based, Escherichia coli; conditions: E. coli
How it was run: as §2

MDREC 1229 = type: cell-based, Escherichia coli
How it was run: as §2

[5] = combined with peptide at 1 μg/ml
[6] = combined with peptide at 2 μg/ml
[7] = combined with peptide at 4 μg/ml
[8] = combined with peptide at 6 μg/ml
[9] = combined with peptide at 8 μg/ml
[10] = combined with peptide at 16 μg/ml
[11] = combined with peptide at 32 μg/ml
[12] = combined with peptide at 64 μg/ml
[13] = peptide treatment concentration 1 μg/ml
[14] = peptide treatment concentration 2 μg/ml
[15] = peptide treatment concentration 4 μg/ml
[16] = peptide treatment concentration 6 μg/ml
[17] = peptide treatment concentration 8 μg/ml
[18] = peptide treatment concentration 16 μg/ml
[19] = peptide treatment concentration 32 μg/ml
[20] = peptide treatment concentration 64 μg/ml
[21] = with Erythromycin […] (Conc./MIC 1)
[22] = with Linezolid […] (Conc./MIC 1)
[23] = with Vancomycin 1024 μg/ml (Conc./MIC 1)
[24] = with Linezolid 512 μg/ml (Conc./MIC 1)

## CC[C@H](C)[C@H](NC(=O)[C@H](CCCCN)NC(=O)[C@H](Cc1c[nH]c2ccccc12)NC(=O)[C@@H](N)CCCNC(=N)N)C(=O)N[C@@H](Cc1ccccc1)C(=O)N[C@@H](CCCCN)C(=O)N[C@@H](CCCCN)C(=O)N[C@H](C(=O)N1CCC[C@H]1C(=O)N[C@@H](CCCCN)C(=O)N[C@@H](Cc1ccccc1)C(=O)N[C@@H](CC(C)C)C(=O)N[C@@H](Cc1c[nH]cn1)C(=O)N[C@@H](CO)C(=O)N[C@@H](Cc1ccccc1)C(=O)N[C@@H](CCCCN)C(=O)N[C@@H](CCCCN)C(=O)N[C@@H](Cc1ccccc1)C(N)=O)[C@@H](C)CC [PapMA-5, RWK IFK KIP KFL HSF KKF-NH2] (H-RWKIFKKIPKFLHSFKKF-NH2; N-terminus assumed)
MDRPA 2002
  Minimal inhibitory concentration MIC: 16 µg/mL (≈ 6.73 µM)
MDRPA 2003
  Minimal inhibitory concentration MIC: 16 µg/mL (≈ 6.73 µM)
A. baumannii [1]
  Minimal inhibitory concentration MIC: 64 µg/mL (≈ 26.9 µM)
  Peptide MIC, peptide alone: 64 µg/mL
MDRAB 12035 [2]
  Minimal inhibitory concentration MIC: 64 µg/mL (≈ 26.9 µM)
  Peptide MIC, peptide alone: 64 µg/mL
B. subtilis
  Minimal inhibitory concentration MIC: >128 µg/mL
A. baumannii [3]
  Synergistic effect of antibacterial activity with existing antibiotics compared with PapMA-1: level similar to that of PapMA-1 peptide
A. baumannii [3]; [5]
  Antibiotic MIC, Erythromycin: 32 µg/mL
  Antibiotic MIC, Linezolid: 128 µg/mL
  Antibiotic MIC, Vancomycin: >128 µg/mL
A. baumannii [3]; [6]
  Antibiotic MIC, Erythromycin: 16 µg/mL
  Antibiotic MIC, Linezolid: 64 µg/mL
  Antibiotic MIC, Vancomycin: >128 µg/mL
A. baumannii [3]; [7]
  Antibiotic MIC, Erythromycin: 8 µg/mL
  Antibiotic MIC, Linezolid: 16 µg/mL
  Antibiotic MIC, Vancomycin: 32 µg/mL
A. baumannii [3]; [8]
  Antibiotic MIC, Erythromycin: 4 µg/mL
  Antibiotic MIC, Linezolid: 8 µg/mL
  Antibiotic MIC, Vancomycin: 16 µg/mL
A. baumannii [3]; [9]
  Antibiotic MIC, Erythromycin: 0.5 µg/mL
  Antibiotic MIC, Linezolid: 4 µg/mL
  Antibiotic MIC, Vancomycin: 8 µg/mL
A. baumannii [3]; [10]
  Antibiotic MIC, Erythromycin: 0.25 µg/mL
  Antibiotic MIC, Linezolid: 4 µg/mL
  Antibiotic MIC, Vancomycin: 4 µg/mL
A. baumannii [3]; [11]
  Antibiotic MIC, Erythromycin: 0.125 µg/mL
  Antibiotic MIC, Linezolid: 2 µg/mL
  Antibiotic MIC, Vancomycin: 2 µg/mL
A. baumannii [3]; [12]
  Antibiotic MIC, Erythromycin: 0 µg/mL
  Antibiotic MIC, Linezolid: 0 µg/mL
  Antibiotic MIC, Vancomycin: 0 µg/mL
MDRAB 12035 [4]; [13]
  Erythromycin MIC during combined treatment with peptide: 32 µg/mL
  Linezolid MIC during combined treatment with peptide: >128 µg/mL
  Vancomycin MIC during combined treatment with peptide: >128 µg/mL
MDRAB 12035 [4]; [14]
  Erythromycin MIC during combined treatment with peptide: 32 µg/mL
  Linezolid MIC during combined treatment with peptide: 128 µg/mL
  Vancomycin MIC during combined treatment with peptide: >128 µg/mL
MDRAB 12035 [4]; [15]
  Erythromycin MIC during combined treatment with peptide: 16 µg/mL
  Linezolid MIC during combined treatment with peptide: 64 µg/mL
  Vancomycin MIC during combined treatment with peptide: 128 µg/mL
MDRAB 12035 [4]; [16]
  Erythromycin MIC during combined treatment with peptide: 2 µg/mL
  Linezolid MIC during combined treatment with peptide: 16 µg/mL
  Vancomycin MIC during combined treatment with peptide: 32 µg/mL
MDRAB 12035 [4]; [17]
  Erythromycin MIC during combined treatment with peptide: 1 µg/mL
  Linezolid MIC during combined treatment with peptide: 8 µg/mL
  Vancomycin MIC during combined treatment with peptide: 16 µg/mL
MDRAB 12035 [4]; [18]
  Erythromycin MIC during combined treatment with peptide: 0.25 µg/mL
  Linezolid MIC during combined treatment with peptide: 8 µg/mL
  Vancomycin MIC during combined treatment with peptide: 8 µg/mL
MDRAB 12035 [4]; [19]
  Erythromycin MIC during combined treatment with peptide: 0.125 µg/mL
  Linezolid MIC during combined treatment with peptide: 4 µg/mL
  Vancomycin MIC during combined treatment with peptide: 4 µg/mL
MDRAB 12035 [4]; [20]
  Erythromycin MIC during combined treatment with peptide: 0 µg/mL
  Linezolid MIC during combined treatment with peptide: 0 µg/mL
  Vancomycin MIC during combined treatment with peptide: 0 µg/mL
E. coli; [21]
  Peptide MIC: 0 µg/mL
E. coli; [22]
  Peptide MIC: 0 µg/mL
E. coli; [23]
  Peptide MIC: 0 µg/mL
MDREC 1229; [21]
  Peptide MIC: 0 µg/mL
MDREC 1229; [24]
  Peptide MIC: 0 µg/mL

## CC[C@H](C)[C@H](NC(=O)[C@H](CCCCN)NC(=O)[C@H](Cc1c[nH]c2ccccc12)NC(=O)[C@@H](N)CCCNC(=N)N)C(=O)N[C@@H](Cc1ccccc1)C(=O)N[C@@H](CCCCN)C(=O)N[C@@H](CCCCN)C(=O)N[C@H](C(=O)N1CCC[C@H]1C(=O)N[C@@H](CCCCN)C(=O)N[C@@H](CC(C)C)C(=O)N[C@@H](CC(C)C)C(=O)N[C@@H](Cc1c[nH]cn1)C(=O)N[C@@H](CO)C(=O)N[C@@H](CC(C)C)C(=O)N[C@@H](CCCCN)C(=O)N[C@@H](CCCCN)C(=O)N[C@@H](Cc1c[nH]c2ccccc12)C(N)=O)[C@@H](C)CC [PapMA-10, RWK IFK KIP KLL HSL KKW-NH2] (H-RWKIFKKIPKLLHSLKKW-NH2; N-terminus assumed)
MDRPA 2002
  Minimal inhibitory concentration MIC: 8 µg/mL (≈ 3.41 µM)
MDRPA 2003
  Minimal inhibitory concentration MIC: 16 µg/mL (≈ 6.81 µM)
A. baumannii [1]
  Minimal inhibitory concentration MIC: 16 µg/mL (≈ 6.81 µM)
  Peptide MIC, peptide alone: 16 µg/mL
MDRAB 12035 [2]
  Minimal inhibitory concentration MIC: 32 µg/mL (≈ 13.6 µM)
  Peptide MIC, peptide alone: 32 µg/mL
B. subtilis
  Minimal inhibitory concentration MIC: >128 µg/mL
A. baumannii [3]
  Synergistic effect of antibacterial activity with existing antibiotics compared with PapMA-1: level similar to that of PapMA-1 peptide
A. baumannii [3]; [5]
  Antibiotic MIC, Erythromycin: 32 µg/mL
  Antibiotic MIC, Linezolid: >128 µg/mL
  Antibiotic MIC, Vancomycin: >128 µg/mL
A. baumannii [3]; [6]
  Antibiotic MIC, Erythromycin: 16 µg/mL
  Antibiotic MIC, Linezolid: 128 µg/mL
  Antibiotic MIC, Vancomycin: 64 µg/mL
A. baumannii [3]; [7]
  Antibiotic MIC, Erythromycin: 8 µg/mL
  Antibiotic MIC, Linezolid: 64 µg/mL
  Antibiotic MIC, Vancomycin: 16 µg/mL
A. baumannii [3]; [8]
  Antibiotic MIC, Erythromycin: 2 µg/mL
  Antibiotic MIC, Linezolid: 32 µg/mL
  Antibiotic MIC, Vancomycin: 16 µg/mL
A. baumannii [3]; [9]
  Antibiotic MIC, Erythromycin: 0.5 µg/mL
  Antibiotic MIC, Linezolid: 8 µg/mL
  Antibiotic MIC, Vancomycin: 4 µg/mL
A. baumannii [3]; [10]
  Antibiotic MIC, Erythromycin: 0 µg/mL
  Antibiotic MIC, Linezolid: 0 µg/mL
  Antibiotic MIC, Vancomycin: 0 µg/mL
A. baumannii [3]; [11]
  Antibiotic MIC, Erythromycin: 0 µg/mL
  Antibiotic MIC, Linezolid: 0 µg/mL
  Antibiotic MIC, Vancomycin: 0 µg/mL
A. baumannii [3]; [12]
  Antibiotic MIC, Erythromycin: 0 µg/mL
  Antibiotic MIC, Linezolid: 0 µg/mL
  Antibiotic MIC, Vancomycin: 0 µg/mL
MDRAB 12035 [4]; [13]
  Erythromycin MIC during combined treatment with peptide: 32 µg/mL
  Linezolid MIC during combined treatment with peptide: >128 µg/mL
  Vancomycin MIC during combined treatment with peptide: >128 µg/mL
MDRAB 12035 [4]; [14]
  Erythromycin MIC during combined treatment with peptide: 32 µg/mL
  Linezolid MIC during combined treatment with peptide: >128 µg/mL
  Vancomycin MIC during combined treatment with peptide: >128 µg/mL
MDRAB 12035 [4]; [15]
  Erythromycin MIC during combined treatment with peptide: 16 µg/mL
  Linezolid MIC during combined treatment with peptide: 64 µg/mL
  Vancomycin MIC during combined treatment with peptide: 64 µg/mL
MDRAB 12035 [4]; [16]
  Erythromycin MIC during combined treatment with peptide: 8 µg/mL
  Linezolid MIC during combined treatment with peptide: 32 µg/mL
  Vancomycin MIC during combined treatment with peptide: 32 µg/mL
MDRAB 12035 [4]; [17]
  Erythromycin MIC during combined treatment with peptide: 8 µg/mL
  Linezolid MIC during combined treatment with peptide: 16 µg/mL
  Vancomycin MIC during combined treatment with peptide: 16 µg/mL
MDRAB 12035 [4]; [18]
  Erythromycin MIC during combined treatment with peptide: 4 µg/mL
  Linezolid MIC during combined treatment with peptide: 8 µg/mL
  Vancomycin MIC during combined treatment with peptide: 4 µg/mL
MDRAB 12035 [4]; [19]
  Erythromycin MIC during combined treatment with peptide: 0 µg/mL
  Linezolid MIC during combined treatment with peptide: 2 µg/mL
  Vancomycin MIC during combined treatment with peptide: 4 µg/mL
MDRAB 12035 [4]; [20]
  Erythromycin MIC during combined treatment with peptide: 0 µg/mL
  Linezolid MIC during combined treatment with peptide: 0 µg/mL
  Vancomycin MIC during combined treatment with peptide: 0 µg/mL
E. coli; [21]
  Peptide MIC: 0 µg/mL
E. coli; [22]
  Peptide MIC: 0 µg/mL
E. coli; [23]
  Peptide MIC: 0 µg/mL
MDREC 1229; [21]
  Peptide MIC: 0 µg/mL
MDREC 1229; [24]
  Peptide MIC: 0 µg/mL
